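Tested at 5 concentrations; 48 h exposure; 96-well plates; endpoints linearly interpolated, else capped at highest concentration. Here, GI50 denotes the concentration required for 50% inhibition of growth. TGI: concentration producing complete growth inhibition.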
How the values were obtained:
Assay in all cases: NCI-60 cell line screen, 48 h
NCI-H23 lung = tested on: NCI-H23 lung
K-562 leukemia = tested on: K-562 leukemia
OVCAR-8 ovarian = tested on: OVCAR-8 ovarian
UO-31 renal = tested on: UO-31 renal
SNB-19 CNS = tested on: SNB-19 CNS
EKVX NSCLC = tested on: EKVX NSCLC
M14 melanoma = tested on: M14 melanoma
HCT-15 colon = tested on: HCT-15 colon
MDA-MB-231 breast = tested on: MDA-MB-231 breast
DU-145 prostate = tested on: DU-145 prostate

Compound	TGI (NCI-H23 lung) [µM]	TGI (K-562 leukemia) [µM]	TGI (OVCAR-8 ovarian) [µM]	TGI (UO-31 renal) [µM]	GI50 (SNB-19 CNS) [µM]	TGI (EKVX NSCLC) [µM]	TGI (M14 melanoma) [µM]	TGI (HCT-15 colon) [µM]	GI50 (NCI-H23 lung) [µM]	GI50 (M14 melanoma) [µM]	GI50 (HCT-15 colon) [µM]	GI50 (K-562 leukemia) [µM]	GI50 (OVCAR-8 ovarian) [µM]	GI50 (UO-31 renal) [µM]	GI50 (MDA-MB-231 breast) [µM]	TGI (MDA-MB-231 breast) [µM]	GI50 (DU-145 prostate) [µM]	TGI (DU-145 prostate) [µM]	GI50 (EKVX NSCLC) [µM]	TGI (SNB-19 CNS) [µM]
COc1cc2c(c(OC)c1OC)-c1ccc(SC)c(=O)cc1[C@@H](NC(=O)c1ccc(OC(C)=O)cc1)CC2	0.049	6.03	12.1	73	0.0214	> 100														
COc1ccc(C2S/C(=C\c3cc(OC)c(OC)c(OC)c3)C(=O)N2NC(=O)Cc2ccccc2)cc1 (centres undefined)	> 100	> 100	> 100	> 100			> 100	> 100												
N#CC1=C(N)OC2=C(COc3ccc(F)cc32)C1c1ccc(Cl)cc1 (centres undefined)	93.6	82	> 100	> 100		> 100	> 100	> 100	29.6	44.6	34.4	27.3	51.1	48.5	26.1	88	44.1	> 100	37.3	
C=C1C(=O)O[C@@H]2C1C[C@@H](O)/C(C)=C/C/C=C(\C)CCC[C@H](C)[C@H]2OC(C)=O (some centres undefined)	86.2		> 100	39.4	61	59.1	44.1	51.9	27.1	19.4	22.2		35.5	15.6	24.3	49.6	20.4	45.4	23.8	> 100
N#Cc1ccccc1NC(=O)/C(=N\NC(=O)c1ccncc1)C(c1cnc2ccc([N+](=O)[O-])cc2n1)[N+](=O)[O-] (centres undefined)	> 100		> 100	> 100		> 100	> 100	> 100								> 100				
O=C(O)c1c2c(c(C(=O)O)c3ccccc13)-c1ccccc1-2	> 100	> 100	> 100	> 100		> 100	> 100													> 100
CCCc1ccc(S(=O)(=O)N[C@H]2CC[C@H]3[C@@H]4CCc5cc(O)ccc5[C@H]4CC[C@]23C)cc1	14.6	12	13.1	8.78	4.2		10.3	6.45	3.31	3.21	2.26	3.06	3.29	2.23	2.29	6.21	4.04	14		15.9
Cc1nc2c(=O)[nH]c(=O)n(C)c2[nH]c1=O	> 100	> 100	> 100	> 100		> 100	> 100	> 100												> 100
O=[N+]([O-])c1ccc(Sc2c3ccccc3nc3ccccc23)cc1	> 100	> 100	> 100	> 100		> 100	> 100	> 100												> 100
COC1/C(=C\C(=O)OC(C)(C)C)c2ccccc2N1C(C)=O (centres undefined)	> 100	> 100	> 100	> 100		> 100	> 100	> 100												> 100

From PubChem BioAssay (NCI)
